Four cell lines from the supplement of paper PMC10307832 can be followed below.

Common to all, as to assay: relative viability (nuclei count vs DMSO), 5 days (fraction); higher = more cells survive
Compound in assay [1]: CC1=CC(=NN1)NC2=CC(=NC(=N2)/C=C/C3=CC=CC=C3)N4CCN(CC4)C + Cc1nc(Nc2ncc(C(=O)Nc3c(C)cccc3Cl)s2)cc(N2CCN(CCO)CC2)n1 [Dasatinib] (partner 0.075 µM)
Summed up:
(§1)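 Nuclei were stained with Hoechst during a one-step fixation (final 0.05% Triton X-100, 1% formaldehyde, 1 ug/ml Hoechst) carried out 5 days after dosing, then counted on 4× images. The cells, lung cancer lines in 1536-well plates, had been dosed by pin tool the day after seeding with one drug alone or a fixed anchor-drug dose plus five library-drug doses (not always all listed) in √10 steps. Relative viability is the nuclei count in treated wells divided by that in vehicle wells, and each value is the median of duplicate plates.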

Compound in the assay “Bortezomib + Lapatinib”: CC(C)C[C@H](NC(=O)[C@H](Cc1ccccc1)NC(=O)c1cnccn1)B(O)O [Bortezomib] + CS(=O)(=O)CCNCc1ccc(-c2ccc3ncnc(Nc4ccc(OCc5cccc(F)c5)c(Cl)c4)c3c2)o1 [Lapatinib] (partner 2 µM)
Put shortly:
as §1

Compound in the assay “Bortezomib + Crizotinib”: CC(C)C[C@H](NC(=O)[C@H](Cc1ccccc1)NC(=O)c1cnccn1)B(O)O [Bortezomib] + C[C@@H](Oc1cc(-c2cnn(C3CCNCC3)c2)cnc1N)c1c(Cl)ccc(F)c1Cl [Crizotinib] (partner 1 µM)
Summed up:
as §1

Compound in assay [2]: CC1=CC(=NN1)NC2=CC(=NC(=N2)/C=C/C3=CC=CC=C3)N4CCN(CC4)C + O=C(c1cc(Cc2n[nH]c(=O)c3ccccc23)ccc1F)N1CCN(C(=O)C2CC2)CC1 [Olaparib] (partner 8 µM)
Summed up: as §1

On to HCC-827, for which the relative viability in assay [1] (first compound 0.08 µM) came out at 0.318; in assay [1] (first compound 0.253 µM), 0.255; in assay [1] (first compound 0.8 µM), 0.282; in assay [1] (first compound 2.53 µM), 0.228; in assay [1] (first compound 8 µM) it was 0.373; in the assay with Bortezomib + Lapatinib (first compound 0.0002 µM), 0.217. Further, the relative viability with Bortezomib + Lapatinib (first compound 0.000632 µM) came out at 0.183; with Bortezomib + Lapatinib (first compound 0.002 µM), 0.187; with Bortezomib + Lapatinib (first compound 0.006325 µM), 0.222; with Bortezomib + Lapatinib (first compound 0.02 µM) it was 0.15; with Bortezomib + Crizotinib (first compound 0.0002 µM), 0.915; with Bortezomib + Crizotinib (first compound 0.000632 µM) it was 0.837. The relative viability with Bortezomib + Crizotinib (first compound 0.002 µM) was determined as 0.783; in the assay with Bortezomib + Crizotinib (first compound 0.006325 µM), 0.251; with Bortezomib + Crizotinib (first compound 0.02 µM), 0.116; in assay [2] (first compound 0.08 µM), 0.605; in assay [2] (first compound 0.253 µM), 0.622; in assay [2] (first compound 0.8 µM) it was 0.708. For the same cell line, the relative viability in assay [2] (first compound 2.53 µM) is 0.62; in assay [2] (first compound 8 µM) it was 0.263.

HOP-62: the relative viability in assay [1] (first compound 0.08 µM) is 0.605; in assay [1] (first compound 0.253 µM), 0.72; in assay [1] (first compound 0.8 µM), 0.772; in assay [1] (first compound 2.53 µM) it was 0.355; in assay [1] (first compound 8 µM), 0.197; with Bortezomib + Lapatinib (first compound 0.0002 µM), 0.953. Moreover, the relative viability with Bortezomib + Lapatinib (first compound 0.000632 µM) came to 1.01; in the assay with Bortezomib + Lapatinib (first compound 0.002 µM), 1.04; with Bortezomib + Lapatinib (first compound 0.006325 µM) it was 0.283; with Bortezomib + Lapatinib (first compound 0.02 µM), 0.0578; in the assay with Bortezomib + Crizotinib (first compound 0.000632 µM) it was 1.01; with Bortezomib + Crizotinib (first compound 0.002 µM), 0.35. In addition, the relative viability with Bortezomib + Crizotinib (first compound 0.006325 µM) was determined as 0.235; with Bortezomib + Crizotinib (first compound 0.02 µM), 0.048; in assay [2] (first compound 0.08 µM) it was 0.366; in assay [2] (first compound 0.253 µM), 0.521; in assay [2] (first compound 0.8 µM) it was 0.436; in assay [2] (first compound 2.53 µM) it was 0.395. Besides, the relative viability in assay [2] (first compound 8 µM) turned out to be 0.194.

As for LC-2-ad, the relative viability is 0.611 in assay [1] (first compound 0.08 µM); 0.367 in assay [1] (first compound 0.253 µM); 0.257 in assay [1] (first compound 0.8 µM); 0.182 in assay [1] (first compound 2.53 µM); 0.134 in assay [1] (first compound 8 µM); 0.73 with Bortezomib + Lapatinib (first compound 0.0002 µM). Further, the relative viability turned out to be 0.928 with Bortezomib + Lapatinib (first compound 0.002 µM); 0.258 with Bortezomib + Lapatinib (first compound 0.006325 µM); 0.1 with Bortezomib + Lapatinib (first compound 0.02 µM); 0.476 in the assay with Bortezomib + Crizotinib (first compound 0.000632 µM); 0.403 in the assay with Bortezomib + Crizotinib (first compound 0.002 µM); 0.291 in the assay with Bortezomib + Crizotinib (first compound 0.006325 µM). In addition, the relative viability with Bortezomib + Crizotinib (first compound 0.02 µM) worked out at 0.19; in assay [2] (first compound 0.08 µM) it was 0.692; in assay [2] (first compound 0.253 µM) it was 0.687; in assay [2] (first compound 0.8 µM) it was 0.704; in assay [2] (first compound 2.53 µM), 0.471; in assay [2] (first compound 8 µM), 0.164.

Consider LCLC-97TM1, for which the relative viability in assay [1] (first compound 0.08 µM) was determined as 0.867; in assay [1] (first compound 0.253 µM), 0.724; in assay [1] (first compound 0.8 µM), 0.885; in assay [1] (first compound 2.53 µM) it was 0.622; in assay [1] (first compound 8 µM), 0.552; in the assay with Bortezomib + Lapatinib (first compound 0.0002 µM), 0.651. Also, the relative viability with Bortezomib + Lapatinib (first compound 0.000632 µM) is 0.701; in the assay with Bortezomib + Lapatinib (first compound 0.002 µM) it was 0.749; in the assay with Bortezomib + Lapatinib (first compound 0.006325 µM), 0.248; in the assay with Bortezomib + Lapatinib (first compound 0.02 µM), 0.118; in the assay with Bortezomib + Crizotinib (first compound 0.0002 µM), 0.4; in the assay with Bortezomib + Crizotinib (first compound 0.000632 µM), 0.329. In addition, the relative viability was found to be 0.111 in the assay with Bortezomib + Crizotinib (first compound 0.002 µM); 0.114 with Bortezomib + Crizotinib (first compound 0.006325 µM); 0.118 with Bortezomib + Crizotinib (first compound 0.02 µM); 0.258 in assay [2] (first compound 0.08 µM); 0.565 in assay [2] (first compound 0.253 µM); 0.323 in assay [2] (first compound 0.8 µM). Further, the relative viability in assay [2] (first compound 2.53 µM) came out at 0.214; in assay [2] (first compound 8 µM), 0.0672.
